Data as given in publication PMC10813753 (Biology, 2024).

Experiments:
[1] = test system: telomeric G4 sequence F21T; test: FRET-based DNA melting assay, telomeric G4 F21T; assay type: binding, human; details: 0.2 μM F21T, renaturing process, K+ buffer
Protocol: FRET DNA melting assays were conducted following standard reported procedures. Briefly, the employed oligonucleotides F21T (5′-FAM—(GGG TTA)3GGG—TAMRA-3′) and F10T (5′-FAM—TAT AGC TA TA/Sp18/TA GCT ATA—TAMRA-3′) were dissolved in buffer at 0.25 μM concentration and annealed by heating at 90 °C for 5 min, and then immediately cooling to 0 °C, in the case of F21T, or slowly to rt (F10T) during a period of 3 hours. The solutions were allowed to stand at 4 °C at least overnight.
Tested compounds 1–4 were dissolved in water with up to a maximum 10% DMSO (50 μM stock solution). Each stock solution was then gradually diluted to reach the final concentrations in the assay from 0 to 10 μM and a fixed 0.2 μM concentration of target sequences F21T or F10T. The buffer used for G4 sequence F21T was 10 mM KCl, 90 mM LiCl and 10 mM Li-cacodylate, pH 7.3. The buffer employed for F10T was 100 mM LiCl and 10 mM Li-cacodylate.
The melting process program consisted of an incubation step at 24 °C for 5 min and then a temperature ramp (1 °C/min rate) with fluorescence recordings at every degree up to 95 °C. Subsequently, the microplate with the samples (50 μL) was incubated for 5 min at 96 °C and then gradually cooled by using a temperature ramp of −1 °C/min, with fluorescence measurements at every degree down to 25 °C. The melting and refolding (or renaturing) curves were registered based on the change in emission of the FAM (6-carboxyfluorescein) fluorophore, excited at 492 nm and emitting at 516 nm. Melting temperature values (Tm) were determined from replicate experiments using normalized curves and considering mid-transition T1/2 temperatures.

HeLa cells (cervix) = test: MTT viability assay HeLa; assay type: cell-based, human; details: 72 h
Protocol: (§1) A panel of five tumor cell lines and two normal cell lines was used to preliminarily test the cytotoxicity of compounds 1–4, and the experiments were conducted as previously reported. All human cell lines were acquired from American Type Culture Collection (ATCC): tumor PC-3 and DU145 (prostate), HeLa (cervix), MCF7 (breast) and HT29 (colorectal) and healthy HFF-1 (fibroblast) and RWPE-1 (prostate). The cell catalogue reference and culture media used in the experiments were CRL-1435^TM, RPMI (PC-3), HTB-81™, RPMI (DU145), CCL-2^TM, DMEM (HeLa), HTB-22^TM, DMEM (MCF-7), HTB-38^TM, modified McCoy’s 5a medium, Catalogue No. 30-2007 (HT29), SCRC-1041^TM, DMEM (HFF-1) and CRL-11609^TM, Keratinocyte-SFM (RWPE-1). Culture media were purchased from Merck: RPMI-1640, DMEM + 10% FBS (Fetal Bovine Serum) + […] (penicillin/streptomycin/amphotericin B). Media and supplements for RWPE-1 were from ThermoFisher (17005075, Madrid, Spain). MCF7 cells were additionally supplemented with insulin (0.001 mg/mL in 500 mL media). Cells were kept at 37 °C (5% CO2), and culture media were renewed three times per week. When the cells reached 80–100% confluence, they were trypsinized and centrifuged, and the concentration was adjusted to each experiment. Cells were seeded at a density of ~10,000 cells/well into 24-well plates. The cells were treated with ligands 1–4 or the cytotoxic agents PhenQE8, PhenDC3 or cisplatin at different concentrations (10 nM–100 μM). Compound solutions were freshly prepared using the appropriate culture medium. Triplicate experiments were run. For MTT viability assays, after 72 h incubation, 50 μL of MTT (5 mg/mL) was added, and an additional incubation of 4 h was allowed. The medium in each well was then replaced by DMSO, and the absorbance was measured at 570 nm using an ELISA plate reader. Absorbances were normalized using negative controls (untreated cells, in triplicate, with a maximum of 0.9% DMSO content). Dose–response curves were obtained by plotting the percentage of viable cells versus logarithmic compound concentration. IC50 values were determined using Kaleidagragh^TM (3.52) software by adjusting the data to Equation 1/(1 + 10^(m2*(log(m1) − x))); m1 = 0.000003; m2 = 1.

[2] = test system: HFF-1 cells (healthy fibroblasts); test: MTT viability assay HFF-1; assay type: cell-based, human; details: 72 h
Protocol: as §1

HeLa cells = test: Annexin V/PI FITC apoptosis assay, HeLa; assay type: cell-based, human; details: 20 μM, 48 h, in comparison to untreated cells
Protocol: For the Annexin V apoptosis experiments, approximately half of the cells used in combined experiments with cell cycle analysis were harvested via trypsinization, PBS washed and stained with the Annexin-V FITC & PI kit (Invitrogen^TM ref. V 13242, Thermo Fisher, Madrid, Spain) following a standard protocol. A total of 10,000 events were recorded, and the results obtained by flow cytometry were represented as dot plots.

MCF-7 cells (breast) = test: MTT viability assay MCF-7; assay type: cell-based, human; details: 72 h
Protocol: as §1

[3] = test system: DU145 cells (prostate tumor); test: MTT viability assay DU145; assay type: cell-based, human; details: 72 h
Protocol: as §1

In the case of “2,2′-(1,10-Phenanthroline-2,9-diyl)-bis(methylene)-bis(hydrazine-1-carbothioamide) [compound 1]”, the “ΔTm of telomeric G4 F21T” value ([1]; 5 μM compound) is reported as ~ 7 °C, the “ΔTm of telomeric G4 F21T” value ([1]; 10 μM compound) is reported as ~ 12 °C and the IC50 (HeLa cells (cervix)) is reported as roughly 100 µM. The IC50 [2] was 74.4 ± 3.1 µM, the “increase in the number of early apoptotic and late apoptotic cells” value (HeLa cells) was 20–25% and the IC50 (MCF-7 cells (breast)) was 78.4 ± 11 µM. The IC50 [3] was 62.2 ± 5.9 µM.
